The target of one test is T1, Histone deacetylase 8 (Homo sapiens, UniProt Q9BY41).
T1 sequence (Q9BY41 whole entry): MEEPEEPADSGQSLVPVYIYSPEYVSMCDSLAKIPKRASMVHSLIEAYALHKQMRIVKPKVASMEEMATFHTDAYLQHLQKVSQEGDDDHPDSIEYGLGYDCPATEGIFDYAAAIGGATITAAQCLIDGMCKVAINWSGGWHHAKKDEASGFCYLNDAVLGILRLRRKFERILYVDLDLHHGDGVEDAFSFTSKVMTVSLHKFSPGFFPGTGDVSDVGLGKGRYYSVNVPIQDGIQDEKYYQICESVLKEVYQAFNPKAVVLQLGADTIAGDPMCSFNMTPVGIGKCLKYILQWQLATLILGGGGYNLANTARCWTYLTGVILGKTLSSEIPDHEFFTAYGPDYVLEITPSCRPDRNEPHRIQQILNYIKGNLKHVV
As to the kind of experiment: Inhibition of human KDAC8 after 60 mins by fluorescence assay.

Test [1] addresses T2, Protein deacetylase HDAC6 (Homo sapiens, UniProt Q9UBN7).
T2 sequence (Q9UBN7 whole entry): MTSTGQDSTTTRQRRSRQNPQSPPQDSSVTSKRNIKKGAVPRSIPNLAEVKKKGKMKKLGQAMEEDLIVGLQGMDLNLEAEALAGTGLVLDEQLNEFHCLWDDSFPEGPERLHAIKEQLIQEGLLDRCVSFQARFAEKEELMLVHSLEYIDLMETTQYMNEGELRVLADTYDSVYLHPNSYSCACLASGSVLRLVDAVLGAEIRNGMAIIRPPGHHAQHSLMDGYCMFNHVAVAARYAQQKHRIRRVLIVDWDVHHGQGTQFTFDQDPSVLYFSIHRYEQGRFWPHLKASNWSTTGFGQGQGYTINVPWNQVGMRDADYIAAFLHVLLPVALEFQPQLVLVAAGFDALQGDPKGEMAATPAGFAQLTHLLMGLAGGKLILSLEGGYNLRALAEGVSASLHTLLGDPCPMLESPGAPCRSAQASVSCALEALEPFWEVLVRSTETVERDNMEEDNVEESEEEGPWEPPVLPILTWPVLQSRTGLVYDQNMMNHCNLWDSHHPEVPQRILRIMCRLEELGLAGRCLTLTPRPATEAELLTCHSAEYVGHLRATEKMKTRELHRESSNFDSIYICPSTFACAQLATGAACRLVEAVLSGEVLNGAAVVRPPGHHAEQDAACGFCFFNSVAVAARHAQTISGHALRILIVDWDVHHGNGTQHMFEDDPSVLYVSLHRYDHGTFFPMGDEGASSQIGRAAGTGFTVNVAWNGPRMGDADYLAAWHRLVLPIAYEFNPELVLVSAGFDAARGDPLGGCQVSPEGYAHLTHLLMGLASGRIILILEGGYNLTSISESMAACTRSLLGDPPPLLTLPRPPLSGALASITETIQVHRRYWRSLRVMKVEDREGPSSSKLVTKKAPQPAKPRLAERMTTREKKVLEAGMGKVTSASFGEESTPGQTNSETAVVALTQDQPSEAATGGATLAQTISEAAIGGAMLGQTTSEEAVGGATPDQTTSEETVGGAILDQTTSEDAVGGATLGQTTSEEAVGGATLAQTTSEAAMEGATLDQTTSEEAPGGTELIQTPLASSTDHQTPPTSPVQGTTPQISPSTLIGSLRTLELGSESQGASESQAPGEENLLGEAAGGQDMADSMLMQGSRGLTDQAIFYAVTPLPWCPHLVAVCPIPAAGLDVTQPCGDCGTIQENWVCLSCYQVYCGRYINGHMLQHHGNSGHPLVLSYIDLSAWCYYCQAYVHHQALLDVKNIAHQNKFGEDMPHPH
As to the kind of experiment: Inhibition of human KDAC6 using FITC-labeled histone H4 acetylated peptide as substrate after 60 mins by fluorescence assay.

Test [2] has as its target T3, Histone deacetylase 3 (Homo sapiens, UniProt O15379). As to the kind of experiment: Inhibition of human KDAC3 using FITC-labeled p53 acetylated peptide as substrate after 60 mins by fluorescence assay.
The target in test [3] is T4, Histone deacetylase 1 (Homo sapiens, UniProt Q13547). Put plainly: Inhibition of human KDAC1 using substrate A after 60 mins by fluorescence assay.
T4 sequence (Q13547 whole entry): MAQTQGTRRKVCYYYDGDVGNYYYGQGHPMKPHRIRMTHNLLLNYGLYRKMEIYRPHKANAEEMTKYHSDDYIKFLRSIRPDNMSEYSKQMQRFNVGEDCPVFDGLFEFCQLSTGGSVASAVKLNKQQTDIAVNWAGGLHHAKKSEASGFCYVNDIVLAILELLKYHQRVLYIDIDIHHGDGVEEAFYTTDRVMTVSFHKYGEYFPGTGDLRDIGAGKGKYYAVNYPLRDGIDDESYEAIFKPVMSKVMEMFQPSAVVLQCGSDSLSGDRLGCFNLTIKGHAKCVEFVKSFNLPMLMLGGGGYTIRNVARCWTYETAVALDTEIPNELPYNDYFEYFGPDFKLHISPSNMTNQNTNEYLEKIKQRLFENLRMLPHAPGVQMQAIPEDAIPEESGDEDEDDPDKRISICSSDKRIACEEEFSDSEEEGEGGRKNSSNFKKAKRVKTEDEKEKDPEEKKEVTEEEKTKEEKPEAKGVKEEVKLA
Test [4] has as its target T5, Histone deacetylase 8 (Homo sapiens) (UniProt Q9BY41).
T5 sequence (whole entry): T1 sequence (Q9BY41 whole entry)
As to the kind of experiment: Inhibition of human KDAC8 at 30 uM after 60 mins by fluorescence assay relative to control.

For test [5], the target named is T3, Histone deacetylase 3. As to the kind of experiment: Inhibition of human KDAC3 at 30 uM using FITC-labeled p53 acetylated peptide as substrate after 60 mins by fluorescence assay relative to control.
The target of test [6] is T4, Histone deacetylase 1. Put plainly: Inhibition of human KDAC1 at 30 uM using substrate A after 60 mins by fluorescence assay relative to control.
Test [7] addresses T6, Protein deacetylase HDAC6 (Homo sapiens) (UniProt Q9UBN7).
T6 sequence (whole entry): T2 sequence (Q9UBN7 whole entry)
The conditions noted are these: at 30 µM.
Description: Inhibition of human KDAC6 at 30 uM using FITC-labeled histone H4 acetylated peptide as substrate after 60 mins by fluorescence assay relative to control

This passage reports IC50 and inhibition results from ChEMBL document CHEMBL3997794, “Design and synthesis of benzodiazepine analogs as isoform-selective human lysine deacetylase inhibitors” (Eur J Med Chem, 2017).

T3 sequence (O15379 whole entry): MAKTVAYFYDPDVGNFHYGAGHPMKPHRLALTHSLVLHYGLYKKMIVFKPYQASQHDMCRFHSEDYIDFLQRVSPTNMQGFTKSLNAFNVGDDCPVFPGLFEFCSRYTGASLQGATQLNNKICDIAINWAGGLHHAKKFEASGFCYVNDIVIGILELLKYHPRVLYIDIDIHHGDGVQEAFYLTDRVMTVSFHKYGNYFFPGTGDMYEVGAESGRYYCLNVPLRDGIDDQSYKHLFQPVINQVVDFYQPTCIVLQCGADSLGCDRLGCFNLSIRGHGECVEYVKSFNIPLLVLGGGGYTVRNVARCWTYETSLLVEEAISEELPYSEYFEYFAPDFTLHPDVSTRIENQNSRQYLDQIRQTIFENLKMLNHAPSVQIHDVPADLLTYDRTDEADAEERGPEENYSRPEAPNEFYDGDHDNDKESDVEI

As for `O=C(CCCCN1C(=O)[C@H](Cc2ccccc2)N=C(c2ccccc2)c2ccccc21)NO`, the IC50 – broadly, the point on the concentration scale where inhibition reaches its midpoint – at Histone deacetylase 8 stood at 12.7 µM; in test [1] it was 1.98 µM; at Histone deacetylase 3 [2], 0.49 µM; at Histone deacetylase 1 [3], 8.51 µM. Moreover, the inhibition (in general, the drop in the measured response relative to a control, in per cent) in test [4] came out at 68.6%; against Histone deacetylase 3 [5], 97%; on Histone deacetylase 1 [6], 75%; in test [7], 95.1%.

Consider `O=C(CCCCN1C(=O)[C@H](CC(=O)NO)N=C(c2ccccc2)c2ccccc21)NO`, for which the IC50 is > 30 µM at Histone deacetylase 8, > 30 µM in test [1], 10.4 µM at Histone deacetylase 3 [2] and 9.99 µM at Histone deacetylase 1 [3]. Besides, the inhibition in test [4] came to 10%; at Histone deacetylase 3 [5], 77.7%; against Histone deacetylase 1 [6], 74.7%; in test [7], 42.5%.

Turning to `CC(C)(C)OC(=O)NCCCC[C@@H]1N=C(c2ccccc2)c2ccccc2N(CCCCC(=O)O)C1=O`, the IC50 (on Histone deacetylase 8; in test [1]; against Histone deacetylase 3 [2]; at Histone deacetylase 1 [3]) was > 30 µM in each case. In addition, the inhibition in test [4] was -2.29%; against Histone deacetylase 3 [5], 0%; against Histone deacetylase 1 [6], 6%; in test [7] it was 0%.
